Values quoted from earlier work, collected in patent publication US20180228856A1, “Antibacterial combination of Basil oil and Taiwan red cypress oil for preventing drug-resistant S. aureus infections and the use thereof” (priority 2017, published 2018).
≈ marks a conversion by molar mass, not a printed value.

Tested on: VISA strain Z172
Details: strain characteristic of Z172

**Q.** Which “minimum inhibitory concentration (MIC)” value does the source give for `CCCCCCCCCC(=O)N[C@@H](Cc1c[nH]c2ccccc12)C(=O)N[C@H](CC(N)=O)C(=O)N[C@@H](CC(=O)O)C(=O)N[C@@H]1C(=O)NCC(=O)N[C@@H](CCCN)C(=O)N[C@@H](CC(=O)O)C(=O)N[C@H](C)C(=O)N[C@@H](CC(=O)O)C(=O)NCC(=O)N[C@H](CO)C(=O)N[C@@H]([C@H](C)CC(=O)O)C(=O)N[C@@H](CC(=O)c2ccccc2N)C(=O)O[C@@H]1C` [daptomycin] here?
**A.** > 4 µg/mL

**Q.** With `CN[C@H](CC(C)C)C(=O)N[C@H]1C(=O)N[C@@H](CC(N)=O)C(=O)N[C@H]2C(=O)N[C@H]3C(=O)N[C@H](C(=O)N[C@H](C(=O)O)c4cc(O)cc(O)c4-c4cc3ccc4O)[C@H](O)c3ccc(c(Cl)c3)Oc3cc2cc(c3O[C@@H]2O[C@H](CO)[C@@H](O)[C@H](O)[C@H]2O[C@H]2C[C@](C)(N)[C@H](O)[C@H](C)O2)Oc2ccc(cc2Cl)[C@H]1O` [vancomycin] as the molecule, how does the “minimum inhibitory concentration (MIC)” value read?
**A.** 4 µg/mL (≈ 2.76 µM)
